Paper PMC4460047 (PLoS ONE, 2015)
Several values for one entry are separate records, joined by “and”; a condition that tells them apart may be missing. Equal values may be shown once. Marks after values point to notes of the source that are not given here.

What was measured:
[1] = Chemical stability in phosphate buffered saline pH 7.4; assay type: physicochemical; settings: for %Compd at 6 h, pH 7.4: percent remaining after 6 h of incubation at 37°C in PBS buffer pH 7.4; for L- and D-aspartate derivatives produced by deamidation at the side chain: buffer pH 7.4, data not shown
Description: (§1) The chemical and metabolic stability of PEA and all prodrugs were studied by incubating each compound (5 μL of a […] solution in DMSO, or DMSO as control) with 495 μL of 10 mM phosphate buffered saline pH 7.4 for chemical stability, 80% v/v rat plasma or 20% w/v rat liver homogenate prepared accordingly to previously described procedures for metabolic stability, reaching a final concentration of 50 nm for the test compound.
(§2) Rat plasma and liver samples were pre-incubated at 37°C for 10 min before adding the compounds. After incubation for different time periods (0, 15, 30, 60, 120, 240 and 360 min), samples were deproteinized by adding 100 μL of acetonitrile with 75 nmol L^-1 IS (PEA-d4). The samples were centrifuged (14 000 g, 10 min, 4°C), and the supernatants were analyzed by HPLC–ESI–MS/MS. For each tested compound, a multiple reaction monitoring (MRM) ESI–MS/MS method was set up in order to monitor the relative concentration of compound and released PEA at the different incubation times, compared to the time t = 0, in rat plasma and liver homogenate.

[2] = Stability and PEA release in 80% v/v rat plasma; assay type: in vitro ADME; settings: for remaining at 6 h, 50 nM: pH 7.4, read-out: Percent remaining after 6 h incubation in rat plasma; for half-life at 50 nM: rat, pH 7.4, 80% v/v rat plasma, read-out: Rat Plasma Compd t 1/2; for half-life at 50 nM / Rat Plasma Compd t 1/2: 50 nm compound
Description: as §1, §2
Cmax and tmax in rat plasma were read from the raw data as the coordinates of the highest concentration observed. A Thermo TSQ Quantum triple-quadrupole mass spectrometer (Thermo Italia, Milan, Italy) with heated electrospray ionization (H-ESI) ion source was used for mass detection and analysis. Mass spectrometric analyses were done in positive ion mode. H-ESI interface parameters were set as follows: probe middle (D) position; capillary temperature 270°C; spray voltage 3.0 kV. Nitrogen was used as nebulizing gas at the following pressure: sheath gas 35 psi; auxiliary gas 15 arbitrary units (a.u.). Argon was used as the collision gas at a pressure of approximately 1.5 mtorr (1 torr = 133.3 Pa). For quantitative analysis, the following parent ion → product ions transitions were selected: PEA (1): m/z 300.2 → m/z 62.3 (tube lens 60 V; collision energy 19 eV); PEA-d4 (Internal Standard): m/z 304.2 → m/z 66.3 + m/z 287.2 (tube lens 72 V; collision energy 15, 12 eV). MRM transitions, tube lens voltages and collision energies for compounds 3–5, 7–9, 19–24, 26–31, and 33 are reported in the S1 File. […] The coefficients of correlation (r^2) were >0.99 for all curves. The LOQ was 1 nmol mL^−1 for all analytes. Extraction efficiency was determined by comparing the peak area ratio of spiked samples at three concentration levels (low, intermediate, and high) to those of extracted charcoal treated blank plasma spiked with the corresponding concentrations. The mean extraction recovery ranged from 109% to 91% for all compounds. The specificity of the assay was evaluated by comparison of HPLC–ESI–MS/MS chromatograms of the analytes at the LOQ to those of charcoal treated blank plasma samples in triplicate.

[3] = Stability in 20% w/v rat liver homogenate; assay type: in vitro ADME; settings: 37°C; for half-life at 50 nM / remaining at 2 h, 50 nM: rat, 20% w/v rat liver homogenate; for half-life at 50 nM: read-out: Rat Liver Compd t 1/2; for remaining at 2 h, 50 nM: read-out: Percent remaining after 2 h incubation in rat liver homogenate
Description: as §1, §2

[4] = Plasma levels after oral administration to Wistar rats; assay type: in vivo, rat
Description: Twenty-seven male Wistar rats (Charles River Laboratories, Italy), 150–250 g in weight, were used in the study. Number of animals was calculated by G-power a priori analysis (α = 0.05 and β = 0.05). Animals were housed in group in policarbonate cages (Tecniplast, Italy) in a conventional facility with controlled temperature 22±1°C, a relative humidity of 55±5%, and a 12 h light/dark cycle (6:00 am to 6:00 pm). The rats were provided standard pellet diet (4RF21 GLP Mucedola, Italy) and water ad libitum throughout the study. The experiments were started only after acclimatization of animals to the laboratory conditions. Before the experiments, rats were fasted for 18 h, with free access to drinking water. Animals were randomized in three experimental groups (nine animals for each group) receiving respectively L-Val-PEA (20), D-Val-PEA (28) and PEA (1).
The day of the experiments substances were turned into a corn oil suspension, after ultrasound and vortexing and they were administered to rats between 8.00 and 10.00 am by gastric gavage at the equimolar doses of 145 mg kg^-1 for L- and D-Val-PEA (20, 28) and 100 mg kg^-1 of PEA (1). Blood samples were collected via sub-tongue puncture from each anaesthetized rat (2% isofluran in air) to minimize any suffering. Blood samples of 0.2 mL were collected before treatment and at 15, 30, 60, 120, 240, 360 and 480 min post-dosing into EDTA-treated tubes (Sarstedt, Germany), immediately centrifuged (5000 rpm, 10 min, 4°C; refrigerated microcentrifuge Z 216 MK, Hermle LaborTechnik). Resulting plasma was immediately processed by protein precipitation with ice-cold acetonitrile containing the IS 75 nmol L^-1 (PEA-d4) and analyzed as previously described. AUC values were calculated employing the software add-ons of Microsoft Excel.

[5] = p.o., PEA 100 mg kg-1, 20, 28 145 mg kg-1

Molecule	%Compd at 6 h, pH 7.4 [1]	half-life at 50 nM ([3]; rat liver homogenate) [min]	half-life at 50 nM ([2]; 80% v/v rat plasma, 37°C) [min]	other results
CCCCCCCCCCCCCCCC(=O)NCCOC(=O)NCC(=O)O [compound 7, N-(2-Palmitoylamino-ethyloxy)carbonyl-glycine]	101 ± 1%	23 ± 1		remaining at 6 h, 50 nM ([2]; 80% v/v rat plasma, 37°C, 6 h): 96 ± 4%
CCCCCCCCCCCCCCCC(=O)NCCOC(=O)[C@@H](N)CCC(N)=O.Cl [compound 24, 2-(Palmitoylamino)ethyl L-glutaminate hydrochloride]	61 ± 3%	~80	18 ± 1	
CCCCCCCCCCCCCCCC(=O)NCCOC(=O)[C@@H](N)Cc1c[nH]c2ccccc12.Cl [compound 22, 2-(Palmitoylamino)ethyl L-tryptophanate hydrochloride]	96 ± 1%	~36	~5	Rat Plasma Compd t 1/2 ([2]; 80% v/v rat plasma, 37°C): 4.5 ± 0.5 min
CCCCCCCCCCCCCCCC(=O)NCCOC(=O)OCOC(=O)C1CCCCC1 [compound 5, (Cyclohexanelcarboxyloyloxy)methyl 2-(palmitoylamino)ethyl carbonate]	84 ± 1%	1.2 ± 0.2	5	Rat Plasma Compd t 1/2 ([2]; 80% v/v rat plasma, 37°C): 5.1 ± 0.5 min
CCCCCCCCCCCCCCCC(=O)NCCOC(=O)N[C@@H](C)C(=O)O [compound 8, N-(2-Palmitoylamino-ethyloxy)carbonyl-L-alanine]	103 ± 3%	29 ± 3		remaining at 6 h, 50 nM ([2]; 80% v/v rat plasma, 37°C, 6 h): 96 ± 2%
CCCCCCCCCCCCCCCC(=O)NCCOC(=O)[C@@H](N)C(C)C.Cl [compound 20, 2-(palmitoylamino)ethyl L-valinate hydrochloride]	91 ± 2%	26 ± 1	46 ± 3	AUC(0-t) ([4]; male, Wistar, rat, plasma, po, administered compound, p.o., mean±SEM, n = 9, read-out: AUC0- 480 (converted)): 129 ng·h/mL; concentration at 15 min ([4]; male, rat, plasma, po, p.o. 145 mg kg-1, Wistar rats, mean ± SEM, n = 9, read-out: Prodrug Conc in plasma, 15 min): 612 nM; concentration at 30 min ([4]; male, rat, plasma, po, p.o. 145 mg kg-1, Wistar rats, mean ± SEM, n = 9, read-out: Prodrug Conc in plasma, 30 min): 212 nM; concentration at 60 min ([4]; male, rat, plasma, po, p.o. 145 mg kg-1, Wistar rats, mean ± SEM, n = 9, read-out: Prodrug Conc in plasma, 60 min): 35.8 nM; concentration at 120 min ([4]; male, rat, plasma, po, p.o. 145 mg kg-1, Wistar rats, mean ± SEM, n = 9, read-out: Prodrug Conc in plasma, 120 min): 22.2 nM; concentration at 240 min ([4]; male, rat, plasma, po, p.o. 145 mg kg-1, Wistar rats, mean ± SEM, n = 9, read-out: Prodrug Conc in plasma, 240 min): 7.1 nM; concentration at 360 min ([4]; male, rat, plasma, po, p.o. 145 mg kg-1, Wistar rats, mean ± SEM, n = 9, read-out: Prodrug Conc in plasma, 360 min): 2.7 nM; concentration at 480 min ([4]; male, rat, plasma, po, p.o. 145 mg kg-1, Wistar rats, mean ± SEM, n = 9, read-out: Prodrug Conc in plasma, 480 min): 9.3 nM; Cmax of administered compound in rat plasma [4, 5]: 612 nm; Time of Cmax of administered compound in rat plasma [4, 5]: 15 min; Increase in plasma half-life relative to L-Ala-PEA ([2]; rat plasma): 46 fold
CCCCCCCCCCCCCCCC(=O)NCCOC(=O)[C@H](N)CC(N)=O.Cl [compound 27, 2-(Palmitoylamino)ethyl D-asparaginate hydrochloride]	3.5 ± 0.3%	55 ± 4	14 ± 1	L- and D-aspartate derivatives produced by deamidation at the side chain [1]: about 1%
CCCCCCCCCCCCCCCC(=O)NCCOC(=O)C[C@H](N)C(=O)O.Cl [compound 29, 4-(2-(Palmitoylamino)ethyl) L-aspartate hydrochloride]	83 ± 3%	21 ± 1	262 ± 35	
CCCCCCCCCCCCCCCC(=O)NCCOC(=O)OCOC(=O)C(C)C [compound 4, Isobutyroyloxymethyl 2-(palmitoylamino)ethyl carbonate]	84 ± 1%	< 1	1.1 ± 0.2	
CCCCCCCCCCCCCCCC(=O)NCCOC(=O)[C@H](C)N.Cl [compound 19, 2-(palmitoylamino)ethyl L-alaninate hydrochloride]	64 ± 5%	~1	~1	Rat Liver Compd t 1/2 ([3]; rat liver homogenate): 1.4 ± 0.5 min
(S)-α-methyl-PEA [compound 30]	96 ± 3%			Percent remaining after 6 h incubation in rat plasma ([2]; 80% v/v rat plasma, 37°C, 6 h): 80 ± 4% ^e; Percent remaining after 2 h incubation in rat liver homogenate ([3]; 2 h): 79 ± 6% ^f
CCCCCCCCCCCCCCCC(=O)NCCOC(=O)OCOC(C)=O [compound 3, Acetoxymethyl 2-(palmitoylamino)ethyl carbonate]	86 ± 1%	< 1	< 1	
CCCCCCCCCCCCCCCC(=O)NCCOC(=O)[C@@H](N)CC(=O)O.Cl [compound 26, 1-(2-(Palmitoylamino)ethyl) L-aspartate hydrochloride]	85 ± 4%		172 ± 2	remaining at 2 h, 50 nM ([3]; 2 h): 66 ± 5%
CCCCCCCCCCCCCCCC(=O)NCCOC(=O)N[C@H](C(=O)O)C(C)C [compound 9, N-(2-Palmitoylamino-ethyloxy)carbonyl-L-valine]	99 ± 1%			remaining at 6 h, 50 nM ([2]; 80% v/v rat plasma, 37°C, 6 h): 98 ± 1%; remaining at 2 h, 50 nM ([3]; 2 h): 92 ± 5%
CCCCCCCCCCCCCCCC(=O)N[C@H](C)COC(=O)[C@@H](N)C(C)C.Cl [compound 33, (2R)-2-(palmitoylamino)propyl L-valinate hydrochloride]	93 ± 4%	38	190 ± 3	Rat plasma half-life relative to L-Val-PEA (20) ([2]; rat plasma): 4 fold
CCCCCCCCCCCCCCCC(=O)NCCOC(=O)[C@@H](N)[C@@H](C)CC.Cl [compound 21, 2-(Palmitoylamino)ethyl L-isoleucinate hydrochloride]	103 ± 6%		205 ± 16	Increase in plasma half-life relative to L-Ala-PEA ([2]; rat plasma): 200 fold; remaining at 2 h, 50 nM ([3]; 2 h): 65 ± 5%
CCCCCCCCCCCCCCCC(=O)NCCOC(=O)[C@@H](N)CC(N)=O.Cl [compound 23, 2-(Palmitoylamino)ethyl L-asparaginate hydrochloride]	3% and 3.3 ± 0.3%	24 ± 1	~9	L- and D-aspartate derivatives produced by deamidation at the side chain [1]: about 1%; half-life at 50 nM ([1]; phosphate buffered saline, pH 7.4, read-out: t 1/2 in buffered solution at pH 7.4): ~3.3 min
CCCCCCCCCCCCCCCC(=O)N[C@H](C)CO [compound 31, (R)-α-methyl-PEA]	95 ± 2%			remaining at 6 h, 50 nM ([2]; 80% v/v rat plasma, 37°C, 6 h): 82 ± 4%; remaining at 2 h, 50 nM ([3]; 2 h): 87 ± 1%
